Where “and” joins values, the source holds several entries; their conditions need not be identical. Identical values can stand only once.
Experiments:
ULK1 = target: T1, ULK1 (Homo sapiens, UniProt O75385); experiment: ULK1 ADP Hunter Plus kinase activity assay; format: biochemical; details: resynthesized samples; mean potency in parenthesis, n = 5; read-out: IC50 against ULK1 (converted)
T1 construct: purchased MRC PPU Reagents and Services, Dundee, Scotland
T1 sequence (O75385 1-1050): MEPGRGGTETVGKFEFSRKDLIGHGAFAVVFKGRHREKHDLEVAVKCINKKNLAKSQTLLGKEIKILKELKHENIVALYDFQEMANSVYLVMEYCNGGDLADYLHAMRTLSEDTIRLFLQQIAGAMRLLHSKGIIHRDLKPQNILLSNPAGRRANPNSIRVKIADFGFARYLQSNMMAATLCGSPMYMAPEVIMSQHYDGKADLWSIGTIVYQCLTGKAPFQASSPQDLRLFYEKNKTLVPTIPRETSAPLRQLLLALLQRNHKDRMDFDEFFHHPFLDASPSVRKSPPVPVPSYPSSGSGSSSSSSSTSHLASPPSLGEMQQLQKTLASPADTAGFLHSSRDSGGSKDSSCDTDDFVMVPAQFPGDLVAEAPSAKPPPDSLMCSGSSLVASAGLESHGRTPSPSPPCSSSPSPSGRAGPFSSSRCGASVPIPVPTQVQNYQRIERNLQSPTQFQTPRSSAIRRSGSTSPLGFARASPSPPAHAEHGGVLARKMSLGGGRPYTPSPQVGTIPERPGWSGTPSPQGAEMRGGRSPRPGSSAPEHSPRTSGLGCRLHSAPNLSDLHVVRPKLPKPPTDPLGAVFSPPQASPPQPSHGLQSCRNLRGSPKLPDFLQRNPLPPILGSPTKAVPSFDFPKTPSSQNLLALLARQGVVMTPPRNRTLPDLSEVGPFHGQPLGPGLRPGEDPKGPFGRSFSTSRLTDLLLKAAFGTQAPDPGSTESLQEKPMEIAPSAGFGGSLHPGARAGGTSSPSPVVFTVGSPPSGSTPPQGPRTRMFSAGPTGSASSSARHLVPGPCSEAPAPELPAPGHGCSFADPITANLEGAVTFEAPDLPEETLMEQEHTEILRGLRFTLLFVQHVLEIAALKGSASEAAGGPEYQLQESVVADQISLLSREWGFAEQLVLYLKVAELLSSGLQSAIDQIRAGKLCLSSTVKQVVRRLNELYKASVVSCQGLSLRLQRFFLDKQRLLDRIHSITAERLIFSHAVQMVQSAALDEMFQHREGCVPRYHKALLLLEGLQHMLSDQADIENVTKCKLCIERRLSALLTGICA

LC3 flux in U2OS cells = experiment: Autophagic flux: LC3-II western blot with/without BafA1 in U2OS cells; format: cell-based, human; details: U2OS
Method: (§1) U2OS (human osteosarcoma-derived) cells were cultured in DMEM supplemented with 10% foetal bovine serum, 100 U/ml Penicillin and […] L-glutamine. Cells were pre-treated with compounds at the indicated concentrations for 60 min followed by treatments with EBSS or EBSS combined with/without 50 nM Bafilomycin A1 (Enzo Life Sciences) for a further 60 or 120 min with/without inhibitors, as indicated in figures/figure legends.
(§2) Prior to western blot analysis, cells were washed twice in ice-cold PBS and lysed in buffer containing 50 mM HEPES pH 7.4, 150 mM NaCl, 1 mM EDTA, 10% Glycerol, 0.5% NP-40, 1 mM DTT, supplemented with phosphatase inhibitors (1.15 mM sodium molybdate, 4 mM sodium tartrate, 0.01 M β-glycerophosphate, 1 mM sodium fluoride, 1 mM sodium orthovanadate) and protease inhibitor tablets (Roche) according to manufacturer's instructions. Lysates were then spun at 20 000×g for 10 min and the supernatant was collected for protein content estimation using Protein Assay Dye Reagent Concentrate from Bio-Rad. 4× LDS was added to the lysate (final dilution 1×) prior to heating at 95°C for 5 min. Electrophoresis and transfer to PVDF membranes was performed using standard protocols. Membranes were blocked in 5% milk in TBS-T prior to incubation with primary antibodies (in 5% milk/TBS-T for ULK1, pS555 (human S556) ULK1, pS757 (human S758) ULK1, pS318-ATG13, ATG13, and in 5% BSA/TBS-T for LC3 and α-Tubulin) under rotation overnight at 4°C followed by washes in TBS-T and incubation with HRP-conjugated secondary antibodies (in 5% milk in TBS-T) for 60 min at room temperature. Membranes were washed in TBS-T before application of ECL reagent (GE healthcare) and development on hypersensitive X-ray films (GE healthcare) (Figures 5A, 6C and Supplementary Figure S7C) or using BIO-RAD Clarity^TM western blotting substrate (Supplementary Figure S6C and Supplementary Figure S7A) and a BIO-RAD ChemiDoc^TM imaging system.
(§3) Quantification of western blots was performed with band densitometry analysis using ImageJ. Quantification of LC3 puncta was performed using either the ITCN plugging in ImageJ or Volocity. One-way or two-way Anova (using GraphPad Prism) followed by a post-hoc test, was used for statistical analysis of western blots and immunofluorescence as indicated in figure legends.

VPS34 (WIPI2 puncta) = experiment: Cellular VPS34 activity: WIPI2 puncta immunofluorescence in U2OS cells; format: cell-based, human
Method: as §1
Prior to immunofluorescence, cells were grown on glass coverslips to ∼60% confluency. Cells were washed in PBS prior to fixation with 3.7% PFA/10 mM HEPES pH 7.0 at room temperature for 20 min. PFA was quenched using DMEM/10 mM HEPES pH 7.0/0.02% NaN3, followed by permeabilisation with 0.2% NP-40 in PBS for 5 min, followed by blocking with 1% BSA/PBS/0.02% NaN3. Primary antibody incubation was at room temperature for 60 min, followed by two 10-minute washes, then fluorescent secondary antibody incubation for 30 min and further washes (all in blocking buffer) before mounting onto glass slides. A wide field Nikon TS microscope was used for image capturing.
as §3

mTOR (ULK1 pS758) = experiment: Upstream mTOR activity: ULK1 pS758 western blot in U2OS cells; format: cell-based, human; details: 100 nM (VPS34-IN1 500 nM), 60 min pre-treatment, ± EBSS 60 min
Method: as §1
as §2, with “Lysates” for “Prior to western blot analysis, cells were washed twice in ice-cold PBS and lysed in buffer containing 50 mM HEPES pH 7.4, 150 mM NaCl, 1 mM EDTA, 10% Glycerol, 0.5% NP-40, 1 mM DTT, supplemented with phosphatase inhibitors (1.15 mM sodium molybdate, 4 mM sodium tartrate, 0.01 M β-glycerophosphate, 1 mM sodium fluoride, 1 mM sodium orthovanadate) and protease inhibitor tablets (Roche) according to manufacturer's instructions. Lysates”
as §3

AMPK (ULK1 pS556) = experiment: Upstream AMPK activity: ULK1 pS556 western blot in U2OS cells; format: cell-based, human; details: 100 nM (VPS34-IN1 500 nM), 60 min pre-treatment, ± EBSS 60 min
Method: as §1
as §2, with “Lysates” for “Prior to western blot analysis, cells were washed twice in ice-cold PBS and lysed in buffer containing 50 mM HEPES pH 7.4, 150 mM NaCl, 1 mM EDTA, 10% Glycerol, 0.5% NP-40, 1 mM DTT, supplemented with phosphatase inhibitors (1.15 mM sodium molybdate, 4 mM sodium tartrate, 0.01 M β-glycerophosphate, 1 mM sodium fluoride, 1 mM sodium orthovanadate) and protease inhibitor tablets (Roche) according to manufacturer's instructions. Lysates”
as §3

PI3Kδ = tested on: PI3Kδ; set-up: method as in ChEMBL database; details: statement in discussion on published selectivity; ref ChEMBL database; cited from earlier work
AMPK α1β2ɣ1 = AMPK α1β2ɣ1 (Homo sapiens, UniProt O43741+P54619+Q13131); experiment: AMPK ADP Hunter Plus kinase activity assay
Chain of AMPK α1β2ɣ1 (Q13131 whole entry): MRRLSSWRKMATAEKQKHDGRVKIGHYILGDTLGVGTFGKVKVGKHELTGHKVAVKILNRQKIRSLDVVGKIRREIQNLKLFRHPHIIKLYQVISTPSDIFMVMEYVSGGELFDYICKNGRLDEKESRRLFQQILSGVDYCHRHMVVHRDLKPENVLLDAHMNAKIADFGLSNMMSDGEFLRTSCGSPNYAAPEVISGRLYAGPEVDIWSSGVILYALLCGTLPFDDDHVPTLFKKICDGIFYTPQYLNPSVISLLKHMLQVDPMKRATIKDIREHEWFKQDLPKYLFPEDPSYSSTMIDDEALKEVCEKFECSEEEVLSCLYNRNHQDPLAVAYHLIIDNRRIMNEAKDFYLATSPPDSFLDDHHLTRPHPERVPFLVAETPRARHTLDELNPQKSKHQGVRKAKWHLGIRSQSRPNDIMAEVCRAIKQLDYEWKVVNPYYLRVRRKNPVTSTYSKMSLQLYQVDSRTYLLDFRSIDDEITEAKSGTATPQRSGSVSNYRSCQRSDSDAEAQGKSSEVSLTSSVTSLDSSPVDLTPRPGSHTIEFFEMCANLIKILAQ
Chain of AMPK α1β2ɣ1 (O43741 whole entry partner): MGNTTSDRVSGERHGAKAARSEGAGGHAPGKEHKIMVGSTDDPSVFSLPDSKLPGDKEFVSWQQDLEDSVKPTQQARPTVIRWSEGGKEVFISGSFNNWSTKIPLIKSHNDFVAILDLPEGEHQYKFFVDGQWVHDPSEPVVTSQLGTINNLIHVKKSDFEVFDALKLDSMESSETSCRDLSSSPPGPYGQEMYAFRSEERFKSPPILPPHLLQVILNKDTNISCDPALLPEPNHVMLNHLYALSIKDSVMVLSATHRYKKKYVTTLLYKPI
Chain of AMPK α1β2ɣ1 (P54619 whole entry partner): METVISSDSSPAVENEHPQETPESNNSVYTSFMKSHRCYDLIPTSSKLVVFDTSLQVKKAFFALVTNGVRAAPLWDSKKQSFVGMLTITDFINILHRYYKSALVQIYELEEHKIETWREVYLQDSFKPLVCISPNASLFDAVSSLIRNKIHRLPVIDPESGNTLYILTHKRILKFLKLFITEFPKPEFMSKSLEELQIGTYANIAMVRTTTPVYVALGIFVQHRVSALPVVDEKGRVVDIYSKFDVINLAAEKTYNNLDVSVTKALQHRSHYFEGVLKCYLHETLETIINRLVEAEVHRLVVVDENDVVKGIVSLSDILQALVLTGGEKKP

VPS34 = VPS34 (Homo sapiens, UniProt Q8NEB9); experiment: VPS34 ADP Hunter Plus kinase activity assay
Chain of VPS34 (Q8NEB9 whole entry): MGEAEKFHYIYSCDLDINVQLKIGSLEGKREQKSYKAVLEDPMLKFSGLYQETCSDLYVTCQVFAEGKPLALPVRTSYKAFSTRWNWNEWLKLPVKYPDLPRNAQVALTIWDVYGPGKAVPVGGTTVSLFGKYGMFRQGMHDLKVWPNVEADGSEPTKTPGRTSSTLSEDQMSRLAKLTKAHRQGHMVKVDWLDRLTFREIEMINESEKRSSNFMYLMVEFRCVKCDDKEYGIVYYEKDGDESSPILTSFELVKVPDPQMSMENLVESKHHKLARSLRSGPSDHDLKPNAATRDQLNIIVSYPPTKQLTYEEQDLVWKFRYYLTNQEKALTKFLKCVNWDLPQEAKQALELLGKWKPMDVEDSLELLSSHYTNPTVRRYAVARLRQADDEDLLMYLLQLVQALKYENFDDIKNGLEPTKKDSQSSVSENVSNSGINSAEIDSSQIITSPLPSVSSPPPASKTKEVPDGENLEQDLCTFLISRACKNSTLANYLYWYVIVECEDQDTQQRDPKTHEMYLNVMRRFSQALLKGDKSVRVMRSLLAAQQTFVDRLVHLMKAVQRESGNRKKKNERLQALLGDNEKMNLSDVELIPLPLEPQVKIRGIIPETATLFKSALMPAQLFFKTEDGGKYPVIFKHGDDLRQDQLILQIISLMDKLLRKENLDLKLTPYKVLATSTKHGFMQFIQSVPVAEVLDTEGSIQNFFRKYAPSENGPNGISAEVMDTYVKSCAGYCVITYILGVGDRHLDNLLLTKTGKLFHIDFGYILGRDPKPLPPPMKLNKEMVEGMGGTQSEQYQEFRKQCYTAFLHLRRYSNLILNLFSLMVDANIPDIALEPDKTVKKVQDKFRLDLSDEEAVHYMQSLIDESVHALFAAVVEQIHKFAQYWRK

O=c1cc(N2CCOCC2)nc2n(Cc3cccc(Cl)c3Cl)c(C3CC3)nn12 [GSK2358994A]
IC50 (ULK1): > 100 µM
Effect on LC3 flux under EBSS starvation (LC3 flux in U2OS cells; 100 nM, 60 min pre-treatment then 60 min EBSS): significantly reduced LC3 flux
Concentration blocking EBSS-induced autophagy (LC3) flux (LC3 flux in U2OS cells; EBSS + 50 nM BafA1, as low as, greater effect at 100 nM): ≤ 10 nM
Effect on EBSS-induced WIPI2 puncta (VPS34 (WIPI2 puncta); 100 nM, 60 min pre-treatment then 60 min EBSS, vs EBSS only): significantly reduced
Concentration working in cells (WIPI2 puncta reduction) (VPS34 (WIPI2 puncta); EBSS, as low as): ≤ 100 nM
Effect on mTORC1 activity (pS758 ULK1) (mTOR (ULK1 pS758)): unaffected
Effect on AMPK activity (pS556 ULK1) (AMPK (ULK1 pS556)): unaffected
Potency against PI3Kδ (PI3Kδ): potent against PI3Kδ
IC50 (AMPK α1β2ɣ1): > 100 µM
IC50 (VPS34; IC50 against VPS34, resynthesized samples, mean potency in parenthesis, n = 5): 8.6 nM and 9 nM
IC50 (VPS34; pIC50 against VPS34, original PKIS samples, concentration-dependent retest of screen hits): < 1000 nM
IC50 (VPS34; pIC50 against VPS34, resynthesized samples, 50 µM ATP (KM app), mean ± SD, n = 5): 8.51 nM
Mechanism of inhibition of VPS34 with respect to ATP (VPS34; varying ATP below 200 µM, Michaelis–Menten and Lineweaver–Burk plots): primarily ATP competitive inhibition
Mechanism of inhibition of VPS34 with respect to PI:PS (VPS34; varying PI:PS below 12 µM): clear non-competitive inhibition

— paper PMC7054748, “The identification and characterisation of autophagy inhibitors from the published kinase inhibitor sets” (Biochemical Journal, 2020)
